Experimental data: patent US11116760B2 (Gilead Sciences, Inc., priority 2018, dated 2021)

Each molecule was assayed against α4β7 integrin (Homo sapiens (Human), UniProt P13612+P26010) (assay: α4β7 Integrin Cell Capture Assay). Conditions: RPMI8866 cells captured on MadCAM-1 extracellular domain-coated plate.
Type: cell-based

α4β7 integrin, sequence (P13612 34-1032): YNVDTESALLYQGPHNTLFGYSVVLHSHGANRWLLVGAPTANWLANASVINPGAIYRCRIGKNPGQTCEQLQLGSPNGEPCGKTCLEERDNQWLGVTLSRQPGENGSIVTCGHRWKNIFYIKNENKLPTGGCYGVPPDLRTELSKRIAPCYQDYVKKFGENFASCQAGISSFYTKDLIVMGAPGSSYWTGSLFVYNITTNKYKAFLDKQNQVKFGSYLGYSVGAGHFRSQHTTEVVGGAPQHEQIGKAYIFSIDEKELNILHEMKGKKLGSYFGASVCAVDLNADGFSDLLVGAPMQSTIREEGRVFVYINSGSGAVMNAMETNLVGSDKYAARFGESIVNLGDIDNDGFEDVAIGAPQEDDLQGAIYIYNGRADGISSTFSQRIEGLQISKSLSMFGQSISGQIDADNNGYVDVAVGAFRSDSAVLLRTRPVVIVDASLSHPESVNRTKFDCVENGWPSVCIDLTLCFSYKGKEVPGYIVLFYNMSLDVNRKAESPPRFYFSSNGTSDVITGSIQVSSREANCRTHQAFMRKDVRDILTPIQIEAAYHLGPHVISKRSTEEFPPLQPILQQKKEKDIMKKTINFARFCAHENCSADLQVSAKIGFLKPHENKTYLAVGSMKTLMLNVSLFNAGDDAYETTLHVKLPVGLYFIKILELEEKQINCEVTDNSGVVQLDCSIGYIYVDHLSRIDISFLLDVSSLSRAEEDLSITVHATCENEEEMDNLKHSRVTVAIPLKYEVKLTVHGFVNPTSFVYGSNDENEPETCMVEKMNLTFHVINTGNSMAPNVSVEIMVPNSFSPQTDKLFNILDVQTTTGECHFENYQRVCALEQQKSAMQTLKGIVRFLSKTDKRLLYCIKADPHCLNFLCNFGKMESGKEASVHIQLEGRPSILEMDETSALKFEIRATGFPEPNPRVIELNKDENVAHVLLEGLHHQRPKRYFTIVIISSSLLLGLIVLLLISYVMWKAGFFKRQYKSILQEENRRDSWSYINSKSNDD
α4β7 integrin, sequence (P26010 20-798): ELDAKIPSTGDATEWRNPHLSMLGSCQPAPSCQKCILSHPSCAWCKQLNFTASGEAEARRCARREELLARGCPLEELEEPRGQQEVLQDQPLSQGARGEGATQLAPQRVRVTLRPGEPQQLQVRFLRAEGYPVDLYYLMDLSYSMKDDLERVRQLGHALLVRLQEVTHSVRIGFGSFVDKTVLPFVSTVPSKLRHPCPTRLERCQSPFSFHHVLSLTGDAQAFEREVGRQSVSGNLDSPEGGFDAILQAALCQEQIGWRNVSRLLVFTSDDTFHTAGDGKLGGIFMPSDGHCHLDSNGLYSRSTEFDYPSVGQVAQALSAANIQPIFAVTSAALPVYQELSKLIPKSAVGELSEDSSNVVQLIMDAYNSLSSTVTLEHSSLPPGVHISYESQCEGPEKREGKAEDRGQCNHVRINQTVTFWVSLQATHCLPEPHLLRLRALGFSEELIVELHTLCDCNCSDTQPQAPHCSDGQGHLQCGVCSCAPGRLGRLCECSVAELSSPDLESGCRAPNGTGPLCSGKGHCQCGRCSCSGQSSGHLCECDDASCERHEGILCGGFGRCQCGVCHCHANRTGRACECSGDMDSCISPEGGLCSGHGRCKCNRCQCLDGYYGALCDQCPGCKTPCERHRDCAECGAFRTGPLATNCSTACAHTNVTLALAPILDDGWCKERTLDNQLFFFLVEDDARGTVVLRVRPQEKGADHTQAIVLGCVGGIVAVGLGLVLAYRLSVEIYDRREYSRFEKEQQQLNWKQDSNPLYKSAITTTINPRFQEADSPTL

EC50 [nM] | SMILES
0.092 | Cc1cc(N2CCOC[C@@H]2C(F)(F)F)cc(F)c1C(=O)N[C@@H](Cc1ccc(-c2c(Cl)cc(C)n(C)c2=O)c2ncccc12)C(=O)O [Example 449]
2.07 | Cc1cc(C(F)(F)F)c(-c2ccc(C[C@H](NC(=O)c3c(F)cc(N4CCOC5(COC5)C4)cc3F)C(=O)O)c3cccnc23)c(=O)n1C [Example 459]
0.091 | Cc1cc(N2CCOC[C@@H]2C(F)(F)F)cc(F)c1C(=O)N[C@@H](Cc1ccc(-n2c(=O)c3c(n(C)c2=O)CCOC3)c2ncccc12)C(=O)O [Example 412]
0.271 | Cc1cc(C(F)(F)F)c(-c2ccc(C[C@H](NC(=O)c3c(F)cc(N4CCO[C@@H](C(F)(F)F)C4)cc3F)C(=O)O)c3cccnc23)c(=O)n1C [Example 447]
0.297 | Cc1cc(C(F)(F)F)c(-c2ccc(C[C@H](NC(=O)c3c(F)cc(N4C[C@H]5C[C@@H]4CO5)cc3F)C(=O)O)c3cccnc23)c(=O)n1C [Example 480]
0.1 | Cc1cc(N2CCOC[C@@H]2C(F)(F)F)cc(F)c1C(=O)N[C@@H](Cc1ccc(-n2c(=O)c3nccnc3n(C)c2=O)c2ncccc12)C(=O)O [Example 404, (S)-2-(2-fluoro-6-methyl-4-((R)-3-(trifluoromethyl)morpholino)benzamido)-3-(8-(1-methyl-2,4-dioxo-1,4-dihydropteridin-3(2H)-yl)quinolin-5-yl)propanoic acid]
1.53 | Cc1cnc(-c2c(F)cc(C[C@H](NC(=O)c3c(C)cc(N4CCOC[C@@H]4C(F)(F)F)cc3F)C(=O)O)c3cccnc23)nc1C [Example 465]
0.248 | CC[C@@H](Nc1cc(F)c(C(=O)N[C@@H](Cc2ccc(-c3nc(C)c(C)n(C)c3=O)c3ncccc23)C(=O)O)c(F)c1F)C(F)(F)F [Example 456]
0.355 | Cc1cc(N2CCOC[C@@H]2C(F)(F)F)cc(F)c1C(=O)N[C@@H](Cc1ccc(-n2c(=O)c3cnccc3n(C)c2=O)c2ncc(F)cc12)C(=O)O [Example 427]
0.049 | Cc1cc(N2CCOC[C@@H]2C(F)(F)F)cc(F)c1C(=O)N[C@@H](Cc1ccc(-n2c(=O)c3ccncc3n(C)c2=O)c2ncccc12)C(=O)O (atropisomer, axis not shown) [Example 408, (S)-2-(2-fluoro-6-methyl-4-((R)-3-(trifluoromethyl)morpholino)benzamido)-3-(8-(1-methyl-2,4-dioxo-1,4-dihydropyrido[3,4-d]pyrimidin-3(2H)-yl)quinolin-5-yl)propanoic acid]

Same assay, conditions: Table 1; capture of α4β7 expressing RPM18866 cells on MadCAM-1 extracellular domain-coated plate

EC50 [nM] | SMILES
67.4 | N#Cc1ccc(-c2ccc(C[C@H](NC(=O)c3c(F)ccc(OC(F)F)c3F)C(=O)O)c3cccnc23)c(Cl)c1 [Example 16, (S)-3-(8-(2-chloro-4-cyanophenyl)quinolin-5-yl)-2-(3-(difluoromethoxy)-2,6-difluorobenzamido)propanoic acid]
11.2 | COc1cc(C)nc(-c2ccc(C[C@H](NC(=O)c3c(F)cc(N4CCOC[C@@H]4C(F)(F)F)cc3F)C(=O)O)c3cccnc23)n1 [Example 99, (S)-2-(2,6-difluoro-4-((R)-3-(trifluoromethyl)morpholino)benzamido)-3-(8-(4-methoxy-6-methylpyrimidin-2-yl)quinolin-5-yl)propanoic acid]
30 | O=C(N[C@@H](Cc1ccc(-c2ccc(C(F)(F)F)cn2)c2ncccc12)C(=O)O)c1c(F)cc(NS(=O)(=O)c2ccc(-c3ccnc(F)c3)cc2)cc1F [Example 57, (S)-2-(2,6-difluoro-4-((4-(2-fluoropyridin-4-yl)phenyl)sulfonamido)benzamido)-3-(8-(5-(trifluoromethyl)pyridin-2-yl)quinolin-5-yl)propanoic acid]
4.1 | CN(C)c1ccnc(-c2ccc(C[C@H](NC(=O)c3c(F)cc(N4CCOC[C@@H]4C(F)(F)F)cc3F)C(=O)O)c3cccnc23)c1C(F)(F)F [Example 105, (S)-2-(2,6-difluoro-4-((R)-3-(trifluoromethyl)morpholino)benzamido)-3-(8-(4-(dimethylamino)-3-(trifluoromethyl)pyridin-2-yl)quinolin-5-yl)propanoic acid]
0.5 | CC[C@@H](Nc1cc(F)c(C(=O)N[C@@H](Cc2ccc(-c3c(C(F)(F)F)cc(C)n(C)c3=O)c3ncc(F)cc23)C(=O)O)c(F)c1)C(F)(F)F [Example 140, (S)-2-(2,6-difluoro-4-(((R)-1,1,1-trifluorobutan-2-yl)amino)benzamido)-3-(8-(1,6-dimethyl-2-oxo-4-(trifluoromethyl)-1,2-dihydropyridin-3-yl)-3-fluoroquinolin-5-yl)propanoic acid]
10.7 | COc1cnn(C)c(=O)c1-c1ccc(C[C@H](NC(=O)c2c(F)cccc2F)C(=O)O)c2cccnc12 [Example 70, (S)-2-(2,6-difluorobenzamido)-3-(8-(5-methoxy-2-methyl-3-oxo-2,3-dihydropyridazin-4-yl)quinolin-5-yl)propanoic acid]
11.3 | N#Cc1ccc(-c2ccc(C[C@H](NC(=O)c3c(F)cc(N[C@H](C4CC4)C(F)(F)F)cc3F)C(=O)O)c3cccnc23)c(Cl)c1 [Example 90]
33.7 | N#Cc1ccc(-c2ccc(C[C@H](NC(=O)c3c(F)cc(CS(=O)(=O)c4ccccc4)cc3F)C(=O)O)c3cccnc23)c(Cl)c1 [Example 49, (S)-3-(8-(2-chloro-4-cyanophenyl)quinolin-5-yl)-2-(2,6-difluoro-4-((phenylsulfonyl)methyl)benzamido)propanoic acid]
30.5 | Cc1ccccc1-c1ccc(C[C@H](NC(=O)c2c(F)cc(NS(=O)(=O)c3ccc(-c4ccnc(F)c4)cc3)cc2F)C(=O)O)c2cccnc12 [Example 63, (S)-2-(2,6-difluoro-4-((4-(2-fluoropyridin-4-yl)phenyl)sulfonamido)benzamido)-3-(8-(o-tolyl)quinolin-5-yl)propanoic acid]
4.2 | CS(=O)(=O)c1cc(F)ccc1-c1ccc(C[C@H](NC(=O)c2c(F)cc(NS(=O)(=O)c3ccc(-c4ccnc(F)c4)cc3)cc2F)C(=O)O)c2cccnc12 [Example 61, (S)-2-(2,6-difluoro-4-((4-(2-fluoropyridin-4-yl)phenyl)sulfonamido)benzamido)-3-(8-(4-fluoro-2-(methylsulfonyl)phenyl)quinolin-5-yl)propanoic acid]
75.9 | O=C(N[C@@H](Cc1ccc(-c2c(Cl)cc(F)cc2Cl)c2ncc(F)cc12)C(=O)O)c1c(F)cccc1F [Example 32, (S)-3-(8-(2,6-dichloro-4-fluorophenyl)-3-fluoroquinolin-5-yl)-2-(2,6-difluorobenzamido)propanoic acid]

SMILES | EC50 [nM]
CC[C@@H](Nc1cc(F)c(C(=O)N[C@@H](Cc2ccc(-c3c(C)c4cc(F)ccc4n(C)c3=O)c3ncccc23)C(=O)O)c(F)c1)C(F)(F)F (atropisomer, axis not shown) [Example 109, (S)-2-(2,6-difluoro-4-(((R)-1,1,1-trifluorobutan-2-yl)amino)benzamido)-3-(6-fluoro-1,4-dimethyl-2-oxo-1,2-dihydro-[3,8′-biquinolin]-5′-yl)propanoic acid] | 0.3

Same assay, conditions: Table 2; capture of α4β7 expressing RPM18866 cells on MadCAM-1 extracellular domain-coated plate

EC50 [nM] | SMILES
0.8 | Cc1cc(C(F)(F)F)c(-c2ccc(C[C@H](NC(=O)c3c(F)cc(N4CCCC[C@@H]4C(F)(F)F)cc3F)C(=O)O)c3cccnc23)c(=O)n1C (atropisomer, axis not shown) [Example 344]
2.2 | Cc1ccnc(-c2ccc(C[C@H](NC(=O)c3c(F)cc(N4CCOC[C@@H]4C(F)(F)F)cc3F)C(=O)O)c3cccnc23)c1C(F)(F)F [Example 223]
0.6 | Cc1c(-c2ccc(C[C@H](NC(=O)c3c(F)cc(N[C@H](C)C(F)(F)F)cc3F)C(=O)O)c3cccnc23)c(=O)n(C)c(=O)n1C [Example 340]
0.9 | CC[C@@H](Nc1cc(F)c(C(=O)N[C@@H](Cc2ccc(-c3c(C(F)(F)F)cc(C)n(C)c3=O)c3nc(C)ccc23)C(=O)O)c(F)c1)C(F)(F)F [Example 183]
79.2 | N#Cc1ccc(-c2ccc(C[C@H](NC(=O)c3c(Cl)cc4[nH]c(Cc5ccccc5)cc4c3Cl)C(=O)O)c3cccnc23)c(Cl)c1 [Example 240]
0.7 | Cc1cc(C)n(C)c(=O)c1-c1ccc(C[C@H](NC(=O)c2c(F)cc(N[C@H](C3CC3)C(F)(F)F)cc2F)C(=O)O)c2cccnc12 [Example 342]
1.2 | CC[C@@H](Nc1cc(F)c(C(=O)N[C@@H](Cc2ccc(-c3c(C)c(C(F)(F)F)cn(C)c3=O)c3ncccc23)C(=O)O)c(F)c1)C(F)(F)F [Example 188]
6.5 | CC[C@@H](Nc1cc(F)c(C(=O)N[C@@H](Cc2ccc(-c3c(C(F)(F)F)ccc4cccnc34)c3ncccc23)C(=O)O)c(F)c1)C(F)(F)F [Example 290]
1.1 | Cc1c(-c2ccc(C[C@H](NC(=O)c3c(F)cc(N4CCS(=O)(=O)[C@@H](C)C4)cc3F)C(=O)O)c3cccnc23)c(=O)n(C)c(=O)n1C [Example 226]
0.3 | Cc1cc(C(F)(F)F)c(-c2ccc(C[C@H](NC(=O)c3c(F)cc(N4CCOC[C@@H]4C(F)(F)F)cc3F)C(=O)O)c3cc(F)cnc23)c(=O)n1C [Example 159]
2.3 | CCOCc1cc(OC)c(-c2ccc(C[C@H](NC(=O)c3c(Cl)cc4[nH]ccc4c3Cl)C(=O)O)c3cccnc23)c(OC)c1 [Example 235]
3.5 | CC[C@@H](Nc1cc(F)c(C(=O)N[C@@H](Cc2ccc(-c3c(C(F)(F)F)cc(F)c4cccnc34)c3ncccc23)C(=O)O)c(F)c1)C(F)(F)F [Example 256]
0.4 | CC[C@@H](Nc1cc(F)c(C(=O)N[C@@H](Cc2ccc(-c3c(C(F)F)cc(C)n(C)c3=O)c3ncccc23)C(=O)O)c(F)c1)C(F)(F)F [Example 167]
1.9 | C[C@@H](Nc1cc(F)c(C(=O)N[C@@H](Cc2ccc(-c3cn(C)c(=O)n(C)c3=O)c3ncccc23)C(=O)O)c(F)c1)C(F)(F)F [Example 211]
8.4 | CC[C@@H](Nc1cc(F)c(C(=O)N[C@@H](Cc2ccc(-c3nccc(C)c3N(C)C)c3ncccc23)C(=O)O)c(F)c1)C(F)(F)F [Example 300]
2 | Cc1cc(C(F)(F)F)c(-c2ccc(C[C@H](NC(=O)c3c(F)cc(N4CCOCC4)cc3F)C(=O)O)c3cccnc23)c(=O)n1C [Example 217]
